Laboratory results reported in patent EP0796243B1, “DIAMINOCYCLOBUTENE-3,4-DIONES” (AMERICAN HOME PRODUCTS CORPORATION, priority 1994, dated 1996).

The compounds below were run on Isolated Rat Bladder Strips (assay: Inhibition of contractions in isolated rat bladder strips (KCl-enhanced contractile activity)). Conditions: 0.5 h, concentration required to elicit 50% inhibition of pre-drug contractile activity, additional 15 mM KCl, 30 minute challenge per concentration, value ± spread as printed.
Set-up: species or system Sprague-Dawley rats
Description: Sprague-Dawley rats (150-200 g) are rendered unconscious by CO2 asphyxiation and then euthanized by cervical dislocation. The bladder is removed into warm (37 deg.C) physiological salt solution (PSS) of the following composition (mM): NaCl, 118.4; KCl, 4.7; CaCl2, 2.5; […]; NaHCO3, 24.9; KH2PO4, 1.2; glucose, 11.1; EDTA, 0.023; gassed with […]; pH 7.4. The bladder is opened and then cut into strips 1-2 mm in width and 7-10 mm in length. The strips are subsequently suspended in a 10 mL tissue bath under an initial resting tension of 1.5 g. The strips are held in place by two surgical clips one of which is attached to a fixed hook while the other is attached to an isometric force transducer. […] The carbachol is then washed out and the tissue allowed to relax to its resting level of activity. Following a further 30 min period of recovery an additional 15 mM KCl are introduced into the tissue bath. This increase in KCI concentration results in a large increase in the amplitude of spontaneous contractions (and initiation of contractions in previously quiescent strips) superimposed upon a small increase in basal tone. Following stabilization of this enhanced level of contractile activity, incremental increases in the concentration of test compound or vehicle are introduced into the tissue bath. Contractile activity is measured for each compound or vehicle concentration during the last minute of a 30 minute challenge.
The isometric force developed by the bladder strips is measured using a […] to elicit 50% inhibition of pre-drug contractile activity (IC50 concentration) is calculated from this concentration-response curve.

Row | Structure (SMILES) | IC50 [nM]
1 | CC(=O)N(c1ccc(C#N)cc1)c1c(NC2CC3CCC2C3)c(=O)c1=O (racemic) [Example 17, N-(endo)-[2-(Bicyclo[2,2,1]hept-2-ylamino)-3,4-dioxo-cyclobut-1-enyl]-N-(4-cyano-phenyl)-acetamide] | 1840 ± 360
2 | CC(=O)N(c1ccncc1)c1c(NC2CC3CCC2C3)c(=O)c1=O (racemic) [Example 21, (endo)-N-[2-(Bicyclo[2,2,1]hept-2-ylamino)-3,4-dioxo-cyclobut-1-enyl]-N-(pyridin-4-yl)-acetamide] | 10600
3 | CCCCNc1c(N(C(C)=O)c2ccc(C#N)cc2)c(=O)c1=O [Example 16, N-(2-Butylamino-3,4-dioxo-cyclobut-1-enyl)-N-(4-cyano-phenyl)-acetamide] | 1240 ± 540
4 | CC(=O)N(c1cccnc1)c1c(N[C@H](C)C(C)(C)C)c(=O)c1=O [Example 23, (R)-N-[3,4-Dioxo-2-(1,2,2-trimethyl-propylamino)-cyclobut-1-enyl]-N-(pyridin-3-yl)-acetamide] | 7200 ± 1600
5 | CC(=O)N(c1ccncc1)c1c(N[C@H](C)C(C)(C)C)c(=O)c1=O [Example 24, (R)-N-[3,4-Dioxo-2-(1,2,2-trimethyl-propylamino)-cyclobut-1-enyl]-N-(pyridin-4-yl)-acetamide] | 2500 ± 200
6 | CC(C)CC(=O)N(c1ccncc1)c1c(N[C@H](C)C(C)(C)C)c(=O)c1=O [Example 25, (R)-N-[3,4-Dioxo-2-(1,2,2-trimethyl-propylamino)-cyclobut-1-enyl]-3-methyl-N-(pyridin-4-yl)-butyramide] | 10800 ± 1600
7 | CCCCC(=O)N(c1ccncc1)c1c(N[C@H](C)C(C)(C)C)c(=O)c1=O [Example 26, (R)-(-)-N-(3,4-Dioxo-2-(1,2,2-trimethyl-propylamino)-cyclobut-1-enyl]-N-(pyridin-4-yl)-pentylamide] | 4900 ± 1200
8 | CCCC(=O)N(c1ccc(C#N)cc1CC)c1c(N[C@H](C)C(C)(C)C)c(=O)c1=O [Example 27, (R)-(-)-N-(4-Cyano-2-ethyl-phenyl)-N-[3,4-dioxo-2-(1,2,2-trimethyl-propylamino)-cyclobut-1-enyl]-butyramide] | 170 ± 4
9 | CCC(=O)N(c1ccc(C#N)cc1CC)c1c(N[C@H](C)C(C)(C)C)c(=O)c1=O [Example 28, (R)-N-(4-Cyano-2-ethyl-phenyl)-N-[3,4-dioxo-2-(1,2,2-trimethyl-propylamino)-cyclobut-1-enyl]-propionamide] | 220 ± 200
10 | C/C=C/C(=O)N(c1ccc(C#N)cc1CC)c1c(N[C@H](C)C(C)(C)C)c(=O)c1=O [Example 29, (R)-(-)-N-(4-Cyano-2-ethylphenyl)-N-[3,4-dioxo-2-(1,2,2-trimethyl-propylamino)-cyclobut-1-enyl]-crotonamide] | 270 ± 20
11 | CCCCC(=O)N(c1ccc(C#N)cc1CC)c1c(N[C@H](C)C(C)(C)C)c(=O)c1=O [Example 31, (R)-(-)-N-(4-Cyano-2-ethyl-phenyl)-N-[3,4-dioxo-2-(1,2,2-trimethyl-propylamino)-cyclobut-1-enyl]-pentanamide] | 610 ± 200
12 | CCc1cc(C#N)ccc1N(C(=O)C1CCCCC1)c1c(N[C@H](C)C(C)(C)C)c(=O)c1=O [Example 32, (R)-(-)-N-(4-cyano-2-ethyl-phenyl)-N-[3,4-dioxo-2-(1,2,2-trimethyl-propylamino)-cyclobut-1-enyl]-cyclohexanecarboxamide] | 630 ± 65
13 | CC(=O)N(c1ccc(C#N)c(Cl)c1)c1c(N[C@H](C)C(C)(C)C)c(=O)c1=O [Example 33, (R)-(-)-N-(3-Chloro-4-cyano-phenyl)-N-[3,4-dioxo-2-(1,2,2-trimethyl-propylamino)-cyclobut-1-enyl]-acetamide] | 190 ± 10

Other lines, results leading:

Row | IC50 [nM] | Structure (SMILES)
14 | 500 | CCC(=O)N(c1ccc(C#N)cc1)c1c(NC(C)C(C)(C)C)c(=O)c1=O (stereo not drawn) [Example 1, N-(4-Cyano-phenyl)-N-[3,4-dioxo-2-(1,2,2-trimethyl-propylamino)-cyclobut-1-enyl]-propionamide]
15 | 290 ± 40 | CC(Nc1c(N(C(=O)c2ccccc2)c2ccc(C#N)cc2)c(=O)c1=O)C(C)(C)C (stereo not drawn) [Example 2, N-(4-Cyano-phenyl)-N-[3,4-dioxo-2-(1,2,2-trimethyl-propylamino)-cyclobut-1-enyl]-benzamide]
16 | 350 ± 100 | CCCCCC(=O)N(c1ccc(C#N)cc1)c1c(NC(C)C(C)(C)C)c(=O)c1=O (stereo not drawn) [Example 5, Hexanoic acid (4-cyano-phenyl)-[3,4-dioxo-2-(1,2,2-trimethyl-propylamino)-cyclobut-1-enyl]-amide]
17 | 570 ± 200 | CC(C)C(=O)N(c1ccc(C#N)cc1)c1c(NC(C)C(C)(C)C)c(=O)c1=O (stereo not drawn) [Example 6, N-(4-Cyano-phenyl)-N-[3,4-dioxo-2-(1,2,2-trimethyl-propylamino)-cyclobut-1-enyl]-isobutyramide]
18 | 370 ± 80 | CC(Nc1c(N(C(=O)C=Cc2ccccc2)c2ccc(C#N)cc2)c(=O)c1=O)C(C)(C)C (stereo not drawn) [Example 7, N-(4-Cyano-phenyl)-N-[3,4-dioxo-2-(1,2,2-trimethyl-propylamino)cyclobut-1-enyl]-3-phenyl-acrylamide]
19 | 230 ± 50 | CC(=O)N(c1ccc(C#N)cc1)c1c(NC(C)C(C)(C)C)c(=O)c1=O (stereo not drawn) [Example 9, N-(4-Cyano-phenyl)-N-[3,4-dioxo-2-(1,2,2-trimethyl-propylamino)-cyclobut-1-enyl]-acetamide]
20 | 310 ± 50 | CC(=O)N(c1ccc(C#N)cc1)c1c(N[C@H](C)C(C)(C)C)c(=O)c1=O [Example 10, (R)-(-)-N-(4-Cyano-phenyl)-N-[3,4-dioxo-2-(1,2,2-trimethyl-propylamino)-cyclobut-1-enyl]-acetamide]
21 | 9700 ± 4100 | CC(=O)N(c1ccc(C#N)cc1)c1c(NC(C)C)c(=O)c1=O [Example 11, N-(4-Cyano-phenyl)-N-[3,4-dioxo-2-isopropylamino-cyclobut-1-enyl]-acetamide]
22 | 200 ± 100 | CC(=O)N(c1ccc(C#N)cc1)c1c(NC(C)C(C)C)c(=O)c1=O (stereo not drawn) [Example 13, N-(4-Cyano-phenyl)-N-[2-(1,2-dimethyl-propylamino)-3,4-dioxo-cyclobut-1-enyl]-acetamide]
23 | 3200 ± 920 | CC(=O)N(c1cccc(C#N)c1)c1c(NC(C)C(C)(C)C)c(=O)c1=O (stereo not drawn) [Example 14, N-(3-Cyano-phenyl)-N-[3,4-dioxo-2-(1,2,2-trimethyl-propylamino)-cyclobut-1-enyl]-acetamide]
24 | 350 ± 100 | CCc1cc(C#N)ccc1N(C(C)=O)c1c(N[C@H](C)C(C)(C)C)c(=O)c1=O [Example 30, (R)-(-)-N-(4-Cyano-2-ethyl-phenyl)-N-[3,4-dioxo-2-(1,2,2-trimethyl-propylamino)-cyclobut-1-enyl]-acetamide]
